Reference: US9216980B2, “Methods of use of diazacarbazoles for treating cancer” (Genentech, Inc., priority 2008, dated 2015)

Tested on: HT-29
Assay: Cellular assay (checkpoint abrogation), phospho-Histone H3
Assay type: cell-based
Conditions: Homo sapiens; HT-29 cells, 20 nM SN-38 for 16 h, then 300 nM nocodazole plus compound for 24 h; phospho-Histone H3 levels; read-out: EC50 in the assay described in EXAMPLE ii
Method: Compounds are tested in a cellular assay using the human colorectal adenocarcinoma derived cell line HT-29 (ATCC HTB-38).
The cell line is maintained in DMEM/F12 (1:1) media (Invitrogen Gibco, #31331) supplemented with 10% FCS at 37° C. in a 5% CO2 humidified incubator.
Cells are seeded in 96-well plates at 30,000 cells/well and after 24 h they are exposed to 20 nM SN-38 in 0.4% DMSO. One column of 8 wells on each plate was used to generate a maximum signal control. These cells are treated with 0.4% DMSO without SN-38. Cells are grown for a further 16 h, then the media containing DMSO plus or minus SN-38 is removed and replaced with media containing 300 nM nocodazole alone (to determine baseline) or in combination with ten concentrations of chk1 inhibitor (final DMSO concentration is 0.4%). Cells are grown for a further 24 h. The media is removed and replaced with 50 μl lysis buffer containing protease inhibitors and phosphatase inhibitors. This buffer contains detergent to bring about cellular disruption. […] Following the transfer of lysate to the MSD plate, Histone H3 in the lysate is captured on the coated antibody by incubation at room temperature for 2 h. Following the capture step the plate is washed and then incubated with an antibody to phosphorylated Histone H3 which is conjugated with a Sulfo-Tag. This tag gives a signal when in proximity to the electrode on the base of the MSD plate. Binding the tagged antibody to the captured protein allow detection on a MSD reader.
EC50 values are calculated using the XLfit software package (version 2.0.5) or Graphpad Prism, (version 3.03) fitting a sigmoidal curve with a variable slope.

| Structure (SMILES) | EC50 |
| --- | --- |
| N#Cc1cc2c(cn1)[nH]c1ncc(-c3cccc(N)c3)cc12 [Example 166, 3-(3-Amino-phenyl)-9H-dipyrido[2,3-b;4′,3′-d]pyrrole-6-carbonitrile] | < 10 µM |
| Cn1nncc1-c1cc2c(cn1)[nH]c1ncc(-c3ccc(CN4CCCCC4)cc3)cc12 [Example 368, 6-(1-Methyl-1H-1,2,3-triazol-5-yl)-3-(4-piperidin-1-ylmethyl-phenyl)-9H-dipyrido[2,3-b;4′,3′-d]pyrrole] | < 10 µM |
| CN(C)S(=O)(=O)c1cccc(-c2cnc3[nH]c4cnc(C#N)cc4c3c2)c1 [Example 190, 3-(6-Cyano-9H-dipyrido[2,3-b;4′,3′-d]pyrrol-3-yl)-N,N-dimethyl-benzenesulfonamide] | < 10 µM |
| CC(=O)Nc1ccc(-c2cnc3[nH]c4cnc(C#N)cc4c3c2)cc1 [Example 186, N-[4-(6-Cyano-9H-dipyrido[2,3-b;4′,3′-d]pyrrol-3-yl)-phenyl]-acetamide] | < 10 µM |
| Cn1ccc(-c2cnc3[nH]c4cnc(C#N)cc4c3c2)n1 [Example 80, 3-(1-Methyl-1H-pyrazol-3-yl)-9H-dipyrido[2,3-b;4′,3′-d]pyrrole-6-carbonitrile] | < 10 µM |
| CN1CCC(c2ccc(-c3cnc4[nH]c5cnc(C#N)cc5c4c3)cc2)CC1 [Example 1, 3-[4-(1-Methyl-piperidin-4-yl)-phenyl]-9H-dipyrido[2,3-b;4′,3′-d]pyrrole-6-carbonitrile] | < 10 µM |
| c1cn(-c2cc3c(cn2)[nH]c2ncc(-c4ccc(CN5CCCCC5)cc4)cc23)cn1 [Example 366, 3-(4-Piperidin-1-ylmethyl-phenyl)-6-(1H-imidazol-1-yl)-9H-dipyrido[2,3-b;4′,3′-d]pyrrole] | < 10 µM |
| N#Cc1cc2c(cn1)[nH]c1ncc(C#CC3CCCNC3)cc12 (centres unmarked) [Example 119, 3-Piperidin-3-ylethynyl-9H-dipyrido[2,3-b;4′,3′-d]pyrrole-6-carbonitrile] | < 10 µM |
| CC(=O)Nc1cccc(-c2cnc3[nH]c4cnc(C#N)cc4c3c2)c1 [Example 138, N-[3-(6-Cyano-9H-dipyrido[2,3-b;4′,3′-d]pyrrol-3-yl)-phenyl]-acetamide] | < 10 µM |
| N#Cc1cc2c(cn1)[nH]c1ncc(-c3ccc(CO)cc3)cc12 [Example 157, 3-(4-Hydroxymethyl-phenyl)-9H-dipyrido[2,3-b;4′,3′-d]pyrrole-6-carbonitrile] | < 10 µM |
| N#Cc1cc2c(cn1)[nH]c1ncc(-c3cnn(CCN4CCOCC4)c3)cc12 [Example 127, 3-[1-(2-Morpholin-4-yl-ethyl)-1H-pyrazol-4-yl]-9H-dipyrido[2,3-b;4′,3′-d]pyrrole-6-carbonitrile] | < 10 µM |
| CN1CCN(c2ccc(-c3cnc4[nH]c5cnc(C#N)cc5c4c3)cc2)CC1 [Example 125, 3-[4-(4-Methyl-piperazin-1-yl)-phenyl]-9H-dipyrido[2,3-b;4′,3′-d]pyrrole-6-carbonitrile] | < 10 µM |
| CS(=O)(=O)c1cccc(-c2cnc3[nH]c4cnc(C#N)cc4c3c2)c1 [Example 188, 3-(3-Methanesulfonyl-phenyl)-9H-dipyrido[2,3-b;4′,3′-d]pyrrole-6-carbonitrile] | < 10 µM |
| CC(C)Oc1ccc(-c2cnc3[nH]c4cnc(C#N)cc4c3c2)cc1 [Example 135, 3-(4-Isopropoxy-phenyl)-9H-dipyrido[2,3-b;4′,3′-d]pyrrole-6-carbonitrile] | < 10 µM |
| N#Cc1cc2c(cn1)[nH]c1ncc(Cl)cc12 [Example 214, 3-Chloro-9H-dipyrido[2,3-b;4′,3′-d]pyrrole-6-carbonitrile] | < 10 µM |
| COc1ccc(-c2cnc3[nH]c4cnc(C#N)cc4c3c2)cc1OC [Example 176, 9H-dipyrido[2,3-b;4′,3′-d]pyrrole-6-carbonitrile] | < 10 µM |
| N#Cc1cc2c(cn1)[nH]c1ncc(-c3cccs3)cc12 [Example 160, 3-Thiophen-2-yl-9H-dipyrido[2,3-b;4′,3′-d]pyrrole-6-carbonitrile] | < 10 µM |
